Measurements published in US20220025379A1, “METHODS OF TREATING SCHIZOPHRENIA AND OTHER NEUROPSYCHIATRIC DISORDERS” (UNIVERSITY OF ROCHESTER, priority 2018, published 2022).

Tests used:
SCZ astrocytes = assay: Potassium uptake (86Rb) by SCZ astrocytes; format: cell-based, human; details: 86Rb uptake, 4 lines
Description: Potassium uptake. Astrocytes were plated onto poly-ornithine- and laminin-coated 24-well plates with 30,000 cells/well. For the potassium uptake assay, astrocytes were incubated with ^86Rb (1.0-3.3 μCi/well) for 15 minutes, and then they were washed three time with ice-cold artificial cerebrospinal fluid (aCSF, 500 μL/well). 0.5N NaOH (200 μL/well) was put into each well for cell lysis, which was put into 5 ml cocktail liquid (Ultima Gold, Fisher Scientific, 509050575) and measured by scintillation counter (Beckman Coulter, LS6500), and the results were normalized to both total protein (BCA Protein Assay Kit, Fisher Scientific, 23227) and cell number (Hemocytometer, Fisher Scientific, 02-671-54). […]
To address this hypothesis, qPCR was used to confirm whether these K+ channel-associated genes were dysregulated in SCZ glia. […] Next, functional K^+ uptake was assessed directly, in cultured SCZ- and CTR-derived astrocytes. […] Astrocytes from 4 different SCZ and 4 different CTR lines were then incubated with 86Rb, a surrogate monovalent cation for K^+ uptake (Larsen et al., “Contributions of the Na(+)/K(+)-ATPase, NKCC1, and Kir4.1 to Hippocampal K(+) Clearance and Volume Responses,” Glia 62:608-622 (2014), which is hereby incorporated by reference in its entirety), and rubidium uptake measured as a function of both cell number and total protein.

CTR astrocytes = assay: Potassium uptake (86Rb) by CTR astrocytes; format: cell-based, human; details: CTR glia/astrocytes, 86Rb uptake, 4 lines
Description: Potassium uptake. Astrocytes were plated onto poly-ornithine- and laminin-coated 24-well plates with 30,000 cells/well. For the potassium uptake assay, astrocytes were incubated with ^86Rb (1.0-3.3 μCi/well) for 15 minutes, and then they were washed three time with ice-cold artificial cerebrospinal fluid (aCSF, 500 μL/well). 0.5N NaOH (200 μL/well) was put into each well for cell lysis, which was put into 5 ml cocktail liquid (Ultima Gold, Fisher Scientific, 509050575) and measured by scintillation counter (Beckman Coulter, LS6500), and the results were normalized to both total protein (BCA Protein Assay Kit, Fisher Scientific, 23227) and cell number (Hemocytometer, Fisher Scientific, 02-671-54). The aCSF solution contained (in mM): 124 NaCl, 2.5 KCl, 1.75 NaH2PO4, 2 MgCl2, 2 CaCl2, 0.04 vitamin C, 10 glucose and 26 NaHCO3, pH 7.4.
To address this hypothesis, qPCR was used to confirm whether these K+ channel-associated genes were dysregulated in SCZ glia. […] Next, functional K^+ uptake was assessed directly, in cultured SCZ- and CTR-derived astrocytes. To obtain mature SCZ and CTR astrocyte cultures, CD44− sorted glial progenitors were cultured in base media supplemented with 10% fetal bovine serum (FBS) and 20 ng/ml BMP4 for 4 weeks, so as to potentiate the differentiation of mature, glial fibrillary acidic protein (GFAP)-expressing, fiber-bearing astrocytes (FIGS. 10A-10C). […] Astrocytes from 4 different SCZ and 4 different CTR lines were then incubated with 86Rb, a surrogate monovalent cation for K^+ uptake (Larsen et al., “Contributions of the Na(+)/K(+)-ATPase, NKCC1, and Kir4.1 to Hippocampal K(+) Clearance and Volume Responses,” Glia 62:608-622 (2014), which is hereby incorporated by reference in its entirety), and rubidium uptake measured as a function of both cell number and total protein.

## C[C@@H]1O[C@@H](O[C@H]2C[C@@H](O)[C@]3(CO)[C@H]4[C@H](O)C[C@]5(C)[C@@H](C6=CC(=O)OC6)CC[C@]5(O)[C@@H]4CC[C@]3(O)C2)[C@H](O)[C@H](O)[C@H]1O [ouabain]
SCZ astrocytes
  K+ uptake: neither ouabain nor bumetanide affected
CTR astrocytes
  K+ uptake: significantly inhibited

## CCCCNc1cc(C(=O)O)cc(S(N)(=O)=O)c1Oc1ccccc1 [bumetanide]
SCZ astrocytes
  K+ uptake: neither ouabain nor bumetanide affected
CTR astrocytes
  K+ uptake: significantly inhibited

## tertiapin (ALCNCNRIIIPHMCWKKCGKK; UniProt P56587 1-21, looked up) [drug which targets Kir channels]
CTR astrocytes
  K+ uptake: did not
